The record followed here is patent publication US20240299588A1, “NERVE LABEL” (UCL Business Ltd, priority 2021, published 2024).

Molecules are shown by their SMILES.

The test system of experiment [1] is brachial plexus. As to the kind of experiment: In vivo peripheral nerve labelling in rats, intravenous 5-ALA, fluorescence imaging of brachial plexus. Also on record: species or system Wistar rats. On the procedure:
(§1) Images were obtained 24 hours after 5-ALA administration using a CCD camera following excitation at 405 nm and porphyrin fluorescence was recorded at 620-650 nm. Scale bar 5 mm.
False colour scale, red/white corresponding to high intensity. BP: brachial plexus, ALN: axillary lymph node. (A): Fluorescence image of the brachial plexus 4 hours post-injection, and (B) the corresponding bright field image (C): Fluorescence image of the brachial nerve 24 hours post-injection. (D): Brachial plexus image in control rat without 5-ALA injection.
5-ALA was obtained from Sigma as an HCl salt in powder form, was stored inside a freezer. […]
(§2) To investigate the potential of a porphyrin prodrug for in vivo peripheral nerve labelling, Wistar rats (n>10 were injected intravenously with the porphyrin prodrug (5-aminolevulinic acid, 5-ALA), as shown in FIG. 1. At set time-points after the injection, the rats were sacrificed and the sciatic nerves and brachial plexus (near the armpit) and surrounding tissues (e.g. muscle, fat tissues) were exposed. The fluorescence image was recorded using a CCD camera.
Wistar rats were administered with 5-ALA intravenously at various concentrations including 100 mg/kg and 200 mg/kg. […] 5-ALA-induced fluorescence was also detected 4 hours after administration of 5-ALA.

The subject of experiment [2] is sciatic nerves. As to the kind of experiment: In vivo peripheral nerve labelling in rats, intravenous 5-ALA, fluorescence imaging of sciatic nerve. Set-up: species or system Wistar rats. The method, then: Images were obtained 24 hours after 5-ALA administration. A: bright field, B: fluorescence image with false colour scale (highest intensity red/white) in rats injected with porphyrin prodrug, C: control rat without any drug injection. Images were obtained with a CCD camera following excitation at 405 nm using a light-emitting diode (LED) and red porphyrin fluorescence was recorded at 620-650 nm. Scale bar 5 mm.
(§3) 5-ALA was obtained from Sigma as an HCl salt in powder form, was stored inside a freezer. Before use, it was thawed, dissolved in a buffered aqueous solution at about pH 5, and then administered intravenously or orally.
as §2

Experiment [3] deals with facial nerves. As to the kind of experiment: In vivo visualisation of facial nerves following intravenous administration of 5-ALA. Also on record: species or system Wistar rats. The following applies: including 24 hours after administration. On the procedure: Images were obtained 24 hours after 5-ALA administration. (A) fluorescence image (highest intensity white colour) in rats administered with 5-ALA, (B) Bright field, in rats administered with 5-ALA, (C) Bright field, in rats administered with 5-control, and (D) fluorescence image (highest intensity white colour) in rats administered with control. Images were obtained with a CCD camera following excitation at 405 nm using a light-emitting diode (LED) and red porphyrin fluorescence was recorded at 620-650 nm.
as §3
Wistar rats were administered with 5-ALA intravenously at different concentrations including 0 mg/kg (control), 100 mg/kg and 200 mg/kg. In vivo visualisation of facial nerves which are part of the cranial nerves were performed at various times including 24 hours after administration of 5-ALA. […] No fluorescence was detected in control rats (FIG. 8D).

The subject of experiment [4] is sciatic nerve. As to the kind of experiment: In vivo imaging of sciatic nerve in rat following oral administration of 5-ALA. Set-up: species or system rats. On the procedure:
Images were obtained 24 hours after 5-ALA administration. (A) Bright field, (B) fluorescence image with false colour scale (highest intensity red/white) in rats administered with 5-ALA. Images were obtained with a CCD camera following excitation at 405 nm using a light-emitting diode (LED) and red porphyrin fluorescence was recorded at 620-650 nm.
as §3
A high fluorescence signal-to-background ratio (SBR) on the peripheral nerves was observed compared to adjacent tissues. […] The results were reproducible and were tested in 5 rats.

In experiment [5] the test system is sciatic nerves. Nature of the experiment: In vivo visualisation of sciatic nerves at various times following intravenous administration of 5-ALA. Also on record: species or system Wistar rats. The method, then: as §1, §3
Wistar rats were administered with 5-ALA intravenously at various concentrations including 100 mg/kg and 200 mg/kg. In vivo visualisation of peripheral nerves such as sciatic nerves and brachial plexus were obtained at various post injection times ranging from 1 hours up to few weeks after administration of 5-ALA. […] 5-ALA-induced fluorescence was also detected 4 hours after administration of 5-ALA.

Setting [6] is: sciatic nerve, intravenous injection, excitation 405 nm, fluorescence 620-650 nm, without optimisation of dose or time.

As for `NCC(=O)CCC(=O)O` [5-ALA, 5-aminolevulinic acid], the “time course of nerve fluorescence in other peripheral nerves” value in experiment [1] (brachial plexus, compared with sciatic nerve time course) was “same results”. Moreover, the brachial plexus labelling entry in experiment [1] (intravenous injection) is “brachial plexus labelling”. In addition, the “red porphyrin fluorescence in rat nerves” value in experiment [2] (intravenous injection) was “highly selective and localised”; in experiment [4] (24 hours after administration) it was “highly selective and localised”. In addition, the “diameter of small nerve branches that can be resolved” value in experiment [2] (intravenous injection, fluorescence imaging) is roughly 0.1 mm. In addition, in experiment [2] (setting [6]), the “nerve to fat tissue ratio (fluorescence signal-to-background ratio)” value is on record as greater than 10. In addition, the “nerve to muscle intensity ratio (fluorescence signal-to-background ratio)” value in experiment [2] (setting [6]) is given as greater than 15. Also, in experiment [2] (surrounding tissue (muscle, fat), then rapid decline to basal levels), the “time at which porphyrin levels reach a peak in surrounding tissue” value was roughly 4 h. Moreover, in experiment [3], the “5-ALA induced fluorescence (PpIX) in branches of facial nerves” value is “bright and localised”. Further, in experiment [4] (tested in 5 rats), the “fluorescence signal ratio versus adjacent tissues” value is on record as “comparable to the intravenous injection route”. The “fluorescence intensity in nerve” value in experiment [5] (2 weeks after administration) and in experiment [5] (4 weeks after administration) was “returned close to background levels” each time. Besides, the “5-ALA-induced fluorescence (PpIX) in sciatic nerve” value in experiment [5] (4 hours after intravenous administration) was “detected”; in experiment [5] (24 hours after intravenous administration), “bright and localised”. The “visualisation of sciatic nerves” value in experiment [5] (3 days after systemic administration) and in experiment [5] (5 days after systemic administration) was “clearly visualised” each time. In addition, the “shortest time after contacting or administration at which peripheral nerves can be visualised” value in experiment [5] (peripheral nerves) is no less than 1 h. Besides, the “time that peripheral nerves retain high levels of fluorescence compared to background after administration” value in experiment [5] (peripheral nerves) is recorded as “up to 7 days”. For the same molecule, in experiment [5] (peripheral nerves, PpIX cleared from adjacent tissues), the “time after administration at which the highest SBR may be achieved” value is listed as “about 24 hours”.
